Assay results as given in DBAASP.
In brackets after ≈: the same amount, converted by molar mass.

Experiments:
Assay in all cases: ≥ marks a high value that may be exact or a test limit, other limits are often not marked, values filed in µg/mL are converted to µM
[1] = system: Candida albicans ATCC 2002
[2] = system: Escherichia coli ATCC 25922
[3] = system: Pseudomonas aeruginosa CMCCB 10104
[4] = system: Staphylococcus aureus ATCC 25923
[5] = system: Acinetobacter baumannii ATCC 19606
[6] = system: Bacillus subtilis ATCC 23857
[7] = system: Enterococcus faecalis ATCC 29212
[8] = system: Klebsiella pneumoniae ATCC 700603
[9] = system: Pseudomonas aeruginosa ATCC 27853
[10] = system: Staphylococcus epidermidis ATCC 12228
[11] = system: Pseudomonas aeruginosa PAO1
[12] = system: Salmonella enterica serovar Typhimurium
[13] = system: Pseudomonas aeruginosa ATCC 9027
[14] = system: Staphylococcus aureus ATCC 6538

Row | Compound | MIC [1] | MIC [2] | MIC [3] | MIC [4] | MIC [6] | further results
1 | CC[C@H](C)[C@H](NC(=O)[C@H](CC(N)=O)NC(=O)[C@H](CCCCN)NC(=O)[C@H](CCCCN)NC(=O)[C@@H]1CCCN1C(=O)[C@H](Cc1ccccc1)NC(=O)[C@@H](NC(=O)[C@@H](N)Cc1ccccc1)[C@@H](C)CC)C(=O)N[C@H](C(=O)N[C@@H](CC(N)=O)C(=O)N[C@@H](CO)C(=O)N[C@@H](CC(C)C)C(=O)N[C@@H](Cc1ccccc1)C(=O)NCC(=O)N[C@@H](CCCN=C(N)N)C(=O)O)[C@@H](C)CC [FIFPKKNIINSLFGR] | 8.92 µM (≈ 16 µg/mL) | > 70.2 µM | 8.92 µM (≈ 16 µg/mL) | 8.92 µM (≈ 16 µg/mL) | – | –
2 | CC[C@H](C)[C@H](NC(=O)CN)C(=O)N[C@@H](CCCN=C(N)N)C(=O)N[C@@H](CCCN=C(N)N)C(=O)NCC(=O)N[C@H](C(=O)N[C@@H](CCCN=C(N)N)C(=O)N[C@@H](CCCN=C(N)N)C(=O)N[C@H](C(=O)N[C@H](C(=O)N[C@@H](CCCCN)C(=O)N[C@@H](CCCN=C(N)N)C(N)=O)[C@@H](C)CC)[C@@H](C)CC)[C@@H](C)CC [GIRRGIRRIIKR] | – | > 128 µM | – | – | ≥ 128 µM | –
3 | CC[C@H](C)[C@H](NC(=O)[C@H](CC(C)C)NC(=O)[C@@H](NC(=O)[C@H](Cc1ccccc1)NC(=O)[C@H](CC(C)C)NC(=O)CN)[C@@H](C)O)C(=O)N[C@@H](CCCCN)C(=O)NCC(=O)N[C@@H](C)C(=O)N[C@@H](Cc1ccc(O)cc1)C(=O)N[C@@H](CCCCN)C(=O)N[C@@H](CC(C)C)C(=O)N[C@@H](CC(=O)O)C(=O)N[C@@H](C)C(=O)N1CCC[C@H]1C(=O)N[C@H](C(=O)N[C@H](C(=O)N[C@@H](C)C(=O)N[C@@H](CS)C(=O)N[C@@H](CC(N)=O)C(=O)O)C(C)C)[C@@H](C)O [GLFTLIKGAYKLDAPTVACN] | 9.59 µM (≈ 20.1 µg/mL) | 19.2 µM (≈ 40.2 µg/mL) | 19.2 µM (≈ 40.2 µg/mL) | 9.59 µM (≈ 20.1 µg/mL) | – | –
4 | CC[C@H](C)[C@H](NC(=O)CN)C(=O)N[C@H](C(=O)N[C@@H](C)C(=O)NCC(=O)N[C@H](C(=O)N[C@H](C(=O)N[C@H](C(=O)N[C@@H](C)C(=O)N[C@H](C(=O)N[C@@H](CCCCN)C(=O)N[C@@H](CCCCN)C(N)=O)[C@@H](C)CC)[C@@H](C)CC)[C@@H](C)CC)[C@@H](C)CC)[C@@H](C)CC [GIIAGIIIAIKK] | – | > 128 µM | – | – | 8 µM (≈ 9.67 µg/mL) | –
5 | CC[C@H](C)[C@H](NC(=O)[C@H](CCCN=C(N)N)NC(=O)[C@H](CCCN=C(N)N)NC(=O)[C@H](Cc1ccccc1)NC(=O)[C@H](Cc1ccccc1)NC(=O)CN)C(=O)N[C@@H](CCCN=C(N)N)C(=O)N[C@H](C(=O)N[C@@H](Cc1ccccc1)C(=O)N[C@@H](Cc1ccccc1)C(N)=O)[C@@H](C)O [GFFRRIRTFF] | – | 32 µM (≈ 43.1 µg/mL) | – | 8 µM (≈ 10.8 µg/mL) | 8 µM (≈ 10.8 µg/mL) | MIC [5]: 32 µM (≈ 43.1 µg/mL); MIC [7]: 32 µM (≈ 43.1 µg/mL); MIC [8]: 32 µM (≈ 43.1 µg/mL); MIC [9]: 4 µM (≈ 5.38 µg/mL); MIC [10]: 32 µM (≈ 43.1 µg/mL)
6 | CC[C@H](C)[C@H](NC(=O)CN)C(=O)N[C@@H](CC(C)C)C(=O)N[C@@H](CCCCN)C(=O)N[C@@H](CCCCN)C(=O)N[C@H](C(=O)N[C@@H](CC(C)C)C(=O)N[C@@H](CCCCN)C(=O)N[C@@H](CCCCN)C(=O)N[C@H](C(=O)N[C@@H](CC(C)C)C(=O)N[C@@H](CCCCN)C(=O)N[C@@H](CCCCN)C(=O)N[C@@H](CC(C)C)C(N)=O)[C@@H](C)CC)[C@@H](C)CC [GILKKILKKILKKL] | – | 9.3 µM (≈ 15.2 µg/mL) | – | – | 1.6 µM (≈ 2.62 µg/mL) | MIC [13]: 5.8 µM (≈ 9.48 µg/mL); MIC [14]: 5.2 µM (≈ 8.5 µg/mL)

The next lines start with results.

Row | MIC [1] | MIC [2] | MIC [3] | MIC [4] | MIC [6] | Compound | further results
7 | – | 16 µM (≈ 23 µg/mL) | – | 16 µM (≈ 23 µg/mL) | 16 µM (≈ 23 µg/mL) | CC[C@H](C)[C@H](NC(=O)[C@H](CCCN=C(N)N)NC(=O)[C@H](CCCCN)NC(=O)[C@H](Cc1ccccc1)NC(=O)[C@H](Cc1c[nH]c2ccccc12)NC(=O)[C@@H](N)CCCCN)C(=O)N[C@@H](CCCCN)C(=O)N[C@H](C(=O)N[C@@H](Cc1ccccc1)C(=O)N[C@@H](Cc1c[nH]c2ccccc12)C(N)=O)[C@@H](C)O [KWFKRIKTFW] | MIC [5]: 128 µM (≈ 184 µg/mL); MIC [7]: 64 µM (≈ 92.1 µg/mL); MIC [8]: 32 µM (≈ 46 µg/mL); MIC [9]: 8 µM (≈ 11.5 µg/mL); MIC [10]: 128 µM (≈ 184 µg/mL)
8 | – | 10.4 µM (≈ 16 µg/mL) | – | 10.4 µM (≈ 16 µg/mL) | – | CC[C@H](C)[C@H](NC(=O)[C@H](CCCN=C(N)N)NC(=O)[C@@H](NC(=O)[C@H](CCCN=C(N)N)NC(=O)[C@H](Cc1c[nH]c2ccccc12)NC(=O)[C@H](CCC(N)=O)NC(=O)[C@@H](N)C(C)C)[C@@H](C)CC)C(=O)N[C@@H](C)C(=O)N[C@H](C(=O)N[C@H](C(=O)N[C@@H](CCCN=C(N)N)C(=O)N[C@@H](CCCCN)C(=O)O)[C@@H](C)CC)C(C)C [VQWRIRIAVIRK] | MIC [11]: 20.8 µM (≈ 32 µg/mL); MIC [12]: 10.4 µM (≈ 16 µg/mL)
9 | 4.32 µM (≈ 10.6 µg/mL) | 2.16 µM (≈ 5.3 µg/mL) | 17.3 µM (≈ 42.4 µg/mL) | 4.32 µM (≈ 10.6 µg/mL) | – | CSCC[C@H](NC(=O)[C@H](CCC(=O)O)NC(=O)[C@H](C)NC(=O)[C@H](C)NC(=O)[C@@H](NC(=O)CNC(=O)[C@H](C)NC(=O)[C@@H](NC(=O)[C@H](Cc1ccccc1)NC(=O)[C@@H]1CCCN1C(=O)[C@@H](N)CC(C)C)C(C)C)C(C)C)C(=O)N[C@@H](CCSC)C(=O)N[C@@H](CCC(N)=O)C(=O)N[C@@H](Cc1cnc[nH]1)C(=O)N[C@H](C(=O)N[C@@H](Cc1ccc(O)cc1)C(=O)N[C@H]1CSSC[C@@H](C(=O)O)NC(=O)[C@H](CCCCN)NC(=O)[C@H](CCCCN)NC(=O)[C@H](CO)NC(=O)[C@H](C)NC(=O)[C@H](C)NC1=O)C(C)C [LPFVAGVAAEMMQHVYCAASKKC] | –
10 | – | 8 µM (≈ 11.7 µg/mL) | – | 32 µM (≈ 46.9 µg/mL) | 8 µM (≈ 11.7 µg/mL) | CC[C@H](C)[C@H](NC(=O)[C@H](CCCCN)NC(=O)[C@H](CCCCN)NC(=O)[C@H](C)NC(=O)[C@@H](NC(=O)[C@H](C)NC(=O)[C@H](CC(C)C)NC(=O)[C@H](CC(C)C)NC(=O)[C@H](C)NC(=O)[C@H](CCCCN)NC(=O)[C@H](C)NC(=O)[C@H](CC(N)=O)NC(=O)[C@@H](N)CC(C)C)C(C)C)C(=O)N[C@@H](CC(C)C)C(N)=O [LNAKALLAVAKKIL] | MIC [8]: 32 µM (≈ 46.9 µg/mL); MIC [13]: 32 µM (≈ 46.9 µg/mL)
11 | 9.28 µM (≈ 30.6 µg/mL) | 9.28 µM (≈ 30.6 µg/mL) | 9.28 µM (≈ 30.6 µg/mL) | 9.28 µM (≈ 30.6 µg/mL) | – | CC[C@H](C)[C@H](NC(=O)CNC(=O)[C@H](CC(=O)O)NC(=O)[C@H](CC(C)C)NC(=O)[C@H](CC(C)C)NC(=O)CN)C(=O)N[C@@H](CC(C)C)C(=O)N[C@@H](CC(N)=O)C(=O)N[C@@H](C)C(=O)N[C@@H](CC(N)=O)C(=O)N[C@@H](Cc1ccccc1)C(=O)N[C@@H](CC(N)=O)C(=O)N[C@@H](C)C(=O)N[C@@H](C)C(=O)N[C@@H](CCCCN)C(=O)N[C@@H](CO)C(=O)N[C@@H](C)C(=O)NCC(=O)N[C@H](C(=O)N[C@@H](CO)C(=O)N[C@H](C(=O)N[C@@H](CC(C)C)C(=O)N[C@@H](CC(N)=O)C(=O)N[C@@H](C)C(=O)N[C@@H](CC(C)C)C(=O)N[C@@H](CO)C(=O)N[C@H]1CSSC[C@@H](C(=O)O)NC(=O)[C@H]([C@@H](C)O)NC(=O)[C@H](CCCCN)NC(=O)[C@H](CO)NC(=O)[C@H](CC(C)C)NC(=O)[C@H](CCCCN)NC1=O)C(C)C)[C@@H](C)O [GLLDGILNANFNAAKSAGTSVLNALSCKLSKTC] | –
12 | – | 20.9 µM (≈ 32 µg/mL) | – | 20.9 µM (≈ 32 µg/mL) | – | CC[C@H](C)[C@H](NC(=O)[C@H](CCCN=C(N)N)NC(=O)[C@H](Cc1c[nH]c2ccccc12)NC(=O)[C@H](CCC(N)=O)NC(=O)[C@@H](N)CCCCN)C(=O)N[C@@H](CCCN=C(N)N)C(=O)N[C@H](C(=O)N[C@@H](CS)C(=O)N[C@H](C(=O)N[C@H](C(=O)N[C@@H](CCCN=C(N)N)C(=O)N[C@@H](C)C(=O)O)[C@@H](C)CC)C(C)C)C(C)C [KQWRIRVCVIRA] | MIC [11]: 41.9 µM (≈ 64 µg/mL); MIC [12]: 20.9 µM (≈ 32 µg/mL)
13 | – | 219 µM (≈ 321 µg/mL) | – | – | 15.1 µM (≈ 22.1 µg/mL) | CC[C@H](C)[C@H](NC(=O)[C@H](CCCCN)NC(=O)[C@@H](NC(=O)[C@@H](NC(=O)[C@H](CCCCN)NC(=O)[C@H](CCCCN)NC(=O)[C@@H](NC(=O)[C@@H](NC(=O)[C@H](CCCCN)NC(=O)[C@H](CCCCN)NC(=O)[C@@H](NC(=O)[C@@H](N)CCCCN)[C@@H](C)CC)[C@@H](C)CC)[C@@H](C)CC)[C@@H](C)CC)[C@@H](C)CC)C(N)=O [KIKKIIKKIIKI] | MIC [13]: 9 µM (≈ 13.2 µg/mL); MIC [14]: 339 µM (≈ 497 µg/mL)
14 | 3.9 µM (≈ 13.1 µg/mL) | 3.9 µM (≈ 13.1 µg/mL) | 3.9 µM (≈ 13.1 µg/mL) | 3.9 µM (≈ 13.1 µg/mL) | – | CC[C@H](C)[C@H](NC(=O)[C@H](C)NC(=O)[C@H](CC(C)C)NC(=O)[C@H](CC(N)=O)NC(=O)[C@H](CCCCN)NC(=O)[C@H](CC(C)C)NC(=O)[C@@H](NC(=O)[C@H](CC(=O)O)NC(=O)[C@H](CC(C)C)NC(=O)[C@H](Cc1ccccc1)NC(=O)[C@@H](N)CO)[C@@H](C)O)C(=O)N[C@@H](CO)C(=O)N[C@@H](C)C(=O)N[C@@H](C)C(=O)N[C@@H](CCCCN)C(=O)NCC(=O)N[C@@H](C)C(=O)NCC(=O)N[C@@H](CCC(N)=O)C(=O)N[C@@H](CO)C(=O)N[C@H](C(=O)N[C@@H](CC(C)C)C(=O)N[C@@H](CO)C(=O)N[C@H](C(=O)N[C@@H](CC(C)C)C(=O)N[C@@H](CO)C(=O)N[C@H]1CSSC[C@@H](C(=O)O)NC(=O)[C@H]([C@@H](C)O)NC(=O)[C@H](CCCCN)NC(=O)[C@H](CO)NC(=O)[C@H](CC(C)C)NC(=O)[C@H](CCCCN)NC1=O)[C@@H](C)O)C(C)C [SFLDTLKNLAISAAKGAGQSVLSTLSCKLSKTC] | –
